# From US20040133938A1, “Use of lipoic acid in plant culture media” (priority 2002, published 2004)
# What was measured:
# [1] = system: immature embryos of wheat cv Bobwhite; assay: Wheat Agrobacterium transformation; assay type: cell-based, Triticum aestivum L; conditions: for Efficiency (%) / Responding calli (%): selection and first regeneration media
# Experimental: This example describes the use of lipoic acid in an Agrobacterium-based wheat transformation process. Immature embryos of wheat (Triticum aestivum L) cv Bobwhite were isolated from the immature caryopsis (wheat spikelets) 13-15 days after pollination, and cultured on M7 media (M7 medium is based on CM4C medium [Table 8], but the amount of MS salts was doubled and the picloram concentration was increased from 2.4 mg/L to 4 mg/L) containing 0.02 mM glyphosate for 3-4 days in the dark at 25° C. The embryos without embryogenic callus were selected for Agrobacterium inoculation. After preculture, 100 embryos were inoculated in 5 mL 1/10 CM4C medium with 5 mL Agrobacterium (OD660=1), 10 μL Pluronic F68 was added, and the mixture was incubated for 15 minutes in the dark at room temperature. Embryos were placed on sterilized filter paper with 200 μL deionized water and cocultured in the dark for 3 days at 23° C. Embryos were then transferred to delay media for 7 days in the dark at 25° C. Delay medium consists of CM4C, 500 mg/L carbenicillin, and 0.02 mM glyphosate. Selection was then performed on CM4C with 2 mM glyphosate, 500 mg/L carbenicillin and aromatic amino acids (10^−7/amino acid) for 7 days. Regeneration was started on MMSO.2C with 0.1 mM glyphosate, 250 mg/L carbenicillin, and aromatic amino acids ([…]) for 2 weeks in the light at 25° C. Regeneration was continued in MMSO.2C with 0.02 mM glyphosate, 500 mg/L carbenicillin, aromatic amino acids (10^−7/amino acid), and 2 μM copper sulfate for 2-8 weeks (with a transfer every 2 weeks) in the light at 25° C. Finally, plantlets were transferred to sundae cups with MMSO media with 0.02 mM glyphosate, and 500 mg/L carbenicillin.
# [2] = system: MicroTom cotyledon explants; assay: Tissue browning severity on Agrobacterium-inoculated MicroTom cotyledon explants; assay type: cell-based, Lycopersicon esculentum; conditions: after 5 days on selection media
# Experimental: This example describes the use of lipoic acid in an Agrobacterium-based tomato transformation process. MicroTom (a cultivar of tomato species: Lycopersicon esculentum) seeds from Tomato Growers (Ball Seed Co., West Chicago, Ill. USA) were surface-sterilized by first soaking for 10 min in sterile deionized water, removing the water, and then adding enough 70% ethanol to immerse the seeds for 1 min while stirring vigorously and then aspirating the ethanol. The seeds were rinsed 2× with sterile deionized water and then soaked in 25% Chlorox with 1-2 drops of Tween 20 for 10 min while stirring frequently. The seeds were rinsed 3× with sterile deionized water. The seeds were germinated in phytatrays containing Davis Germination medium (4.3 g/L MS salts, 2 ml/L Gamborg's B-5 500× salts, 20 g/L sucrose and 10 g/L agar) (approximately 120 seeds/container), and the phytatrays were wrapped with aluminum foil. The phytatray cultures were maintained at 28° C. under the dark for 5 days. After 5 days, the phytatray cultures were unwrapped and grown at 24° C. under a 16 h photoperiod for about 44 h.
# Cotyledon explants were isolated from seedlings 7 days after sowing seeds on Davis Germination medium. Cotyledon explants were prepared by bathing them in 6 mL of TXD liquid medium (4.3 g/L MS salts, 2 mL/L Gamborg's B-5 500× salts, 4 mg/L pCPA (p-chlorophenoxyactic acid), 0.005 mg/L kinetin, and 30 g/L sucrose) to prevent desiccation and trimming them at both ends using a #15 feather blade. Immediately after the trimming, the cotyledon explants were gently placed on “feeder plates” containing UC2PC medium (2.2 g/L MS salts, 2.2 mL/L, Gamborg's B-5 500× salts, 0.2 mg/L 2,4-D, 4 mg/L pCPA, 0.1 mg/L kinetin, 30 g/L sucrose, 0.2 g/L potassium phosphate, 10 g/L agar, 8 mL/L acetosyringone (4.91 mg/mL), and 4 mL galacturonic acid (53.05 mg/mL)). The “feeder plates” are made by overlaying 2 mL of tobacco suspension cells and a sterile Whatman filter on the plates containing UC2PC medium. The cotyledon explants were gently poked with a sharp forceps (ASIM5311, Stainless French, made in Switzerland). Usually six to ten pokes were made per explant depending the size of cotyledons. Right after poking, the cotyledons were inoculated with Agrobacterium containing pMON15715 (FIG. 1) by adding 3 mL of the adjusted Agrobacterium solution on top of the cotyledons. The plates were incubated for 10 min at room temperature, and the Agrobacterium solution was aspirated with a sterile pipette. The cotyledons were then co-cultured for 2 days at 23-24° C. under a 16-h photoperiod. The co-culture plates were placed in plastic bags to keep the humidity, which is preferable for MicroTom growth.
# […] Three to four weeks after the induction stage, the cotyledons formed buds or shoots. Cotyledons with buds or shoots were separated by individual event and transferred to, shoot elongation medium E2 (SI-2 medium without IAA), supplemented with 100 mg/L kanamycin for two to four weeks. All culture plates were placed in a culture box, placed inside a plastic bag, and cultured at 23-24° C. under a 16 h photoperiod.
# Evaluation of plants after transformation with pMON15715 (FIG. 1) as described above was carried out in multiple ways. About five days after selection, tissue browning severity within and around the poked region on cotyledon explants was measured under a dissecting microscope. Low tissue browning severity was determined as less than 30% of the pokes made on each cotyledon explant that produced browning tissue and the high tissue browning severity was determined as more than 30% of the pokes made on each explant that generated browning tissue 5 days after culturing on selection medium. All the treatments of lipoic acid at concentrations of 5, 10, 50 and 100 μM had 1.5- to 1.8-fold increases of the percentage of explants scored as low tissue browning severity, respectively, compared to the treatment without lipoic acid (Table 1).
# [3] = Delay-selection-first regeneration 25-25-50 (μM), 599 explants
# [4] = Delay-selection-first regeneration 25-50-50 (μM), 560 explants
# [5] = Delay-selection-first regeneration 50-50-50 (μM), 570 explants
smiles,measurement,setting,value
"O=C(O)CCCCC1CCSS1 (stereo not drawn) [lipoic acid, 1,2-dithiolane-3-pentanoic acid]",Efficiency (%),"[1]; 5 μM in delay, 472 explants",3.8%
same,Responding calli (%),"[1]; 5 μM in delay, 472 explants",33.1%
same,Efficiency (%),"[1]; 10 μM in delay, 486 explants",3.2%
same,Responding calli (%),"[1]; 10 μM in delay, 486 explants",38.8%
same,Efficiency (%),"[1]; 30 μM in delay, 486 explants",3.0%
same,Responding calli (%),"[1]; 30 μM in delay, 486 explants",38.6%
same,Efficiency (%),"[1]; 50 μM in delay, 482 explants",5.1%
same,Responding calli (%),"[1]; 50 μM in delay, 482 explants",47.9%
same,Efficiency (%),"[1]; 100 μM in delay, 464 explants",2.2%
same,Responding calli (%),"[1]; 100 μM in delay, 464 explants",28.4%
same,% efficiency,[1]; [3],3.0%
same,% responding calli,[1]; [3],41.7%
same,% efficiency,[1]; [4],5.4%
same,% responding calli,[1]; [4],50.5%
same,% efficiency,[1]; [5],4.9%
same,% responding calli,[1]; [5],49.6%
same,% high browning,[2]; 5 μM lipoic acid,34.9%
same,% low browning,[2]; 5 μM lipoic acid,65.1%
same,% high browning,[2]; 10 μM lipoic acid,33.9%
same,% low browning,[2]; 10 μM lipoic acid,66.1%
same,% high browning,[2]; 50 μM lipoic acid,34.4%
same,% low browning,[2]; 50 μM lipoic acid,65.6%
same,% high browning,[2]; 100 μM lipoic acid,46%
same,% low browning,[2]; 100 μM lipoic acid,54%
